Like-named read-outs stand apart in the source and are kept apart here. One block for each compound: values may come before it.
Assays:
[1] = Metabolic stability in pooled mouse liver microsomes; format: in vitro ADME
Experimental: LW6 (1 µM) was incubated with pooled mouse liver microsomes (0.5 mg/mL) in the absence or presence of NADPH (1 mM) to determine its conversion to APA. LW6 was degraded slowly in the absence or presence of NADPH, with 63% or 65% remaining after 60 min microsomal incubations, respectively (Figure 3A). […] APA, following its formation, gradually disappeared from the microsomal incubation media only in the presence of NAPDH (Figure 3A). To determine whether APA was metabolized by cytochrome P450 (CYP450), APA (1 µM) also was incubated with pooled male mouse liver microsomes (0.5 mg/mL) in the absence or presence of NADPH (1 mM).
All incubations were conducted in triplicate at 37 °C in eight-well tube strips placed in an 8 × 12 rack (VWR, Emeryville, CA). Incubation mixtures consisted of mouse liver microsomes (0.5 mg protein/mL), NADPH (1 mM), and LW6 (1 µM) or APA (1 µM) in 0.1 M potassium phosphate buffer (pH 7.4). The final incubation volume was 160 µL and the final acetonitrile content was 1%. Samples were preincubated for 5 min at 37 °C before adding LW6 or APA to initiate the reaction. The reaction was terminated at 0, 5, 15, 30, and 60 min by the addition of 320 µL of ice-cold acetonitrile containing the internal standard. Incubation mixtures were then centrifuged at 910× g for 10 min and the supernatant was analyzed by the LC-ESI/MS/MS method described below for quantitation of LW6 and APA.

[2] = In vivo plasma pharmacokinetics after a single i.v. or p.o. dose in male ICR mice; set-up: species or system mouse; conditions: for half-life / Vd: male, ICR; for half-life / Vd / MRT / clearance: iv; for Cmax / Tmax: po
Text: The animal experiments conducted in this study were approved by the Institutional Animal Care and Use Committee of the Korea Research Institute of Bioscience and Biotechnology (Chung-buk, Korea; KRIBB-AEC-15005, 9 January 2015) and performed in compliance with the National Institutes of Health Guidelines for the care and use of laboratory animals and Korean national laws for ethical conduct in the care and use of animals. Specific pathogen-free (SPF) male ICR mice (8 weeks old) were purchased from Koatech Co. (Pyeongtaek, Kyonggi, Republic of Korea) and maintained in an SPF environment at a temperature of 22 ± 2 °C with a 12-h light/dark cycle and a relative humidity of 50 ± 10%. Food and water were given ad libitum. Animals were allowed to acclimatize to the testing facility for a week before being used in the study. Animal group for oral administration was fasted overnight before the study and fed again 4 h after dosing. Mice were given a single dose of test substance intravenously (i.v.) via tail vein injection or orally (p.o.) by a disposable syringe with an oral zonde. While LW6 was administered i.v. (5 mg/kg) or p.o. (5 mg/kg), APA was administered only i.v. (5 mg/kg). The solutions were prepared in dimethylacetamide/Cremophor EL/20% v/v 2-hydroxypropyl β-cyclodextrin in de-ionized water (1/1/3 v/v; i.v. or p.o. for LW6) or ethanol/20% v/v 2-hydroxypropyl β-cyclodextrin in de-ionized water (1/9 v/v; i.v. for APA) and administered at a dose volume of 5 mL/kg for both i.v. and p.o. Blood samples were collected via saphenous vein without the use of anesthesia as described in the earlier methodology study at the time points including 0, 0.25, 0.5, 0.75, 1, 2, 4, 6, 8, and 24 h after oral administration or 0, 0.083, 0.167, 0.25, 0.5, 1, 2, 4, 6, 8, and 24 h after intravenous administration. These samples were collected into Microvette® capillary tubes at predetermined time points. The blood samples were centrifuged under refrigeration at 12,000× g for 3 min and then kept frozen at −20 °C until analysis.
Plasma samples were prepared for analysis by the protein precipitation method. An aliquot of 15 µL from each plasma sample was transferred to a PCR tube (Axygen, Union City, CA, USA). Four volumes of acetonitrile containing the analytical internal standard (IS) 4-methylumbelliferone were added and the resulting mixture was vortexed for 10 min on a Multi-Tube vortexer (VWR International, West Chester, PA, USA), and sonicated for 30 min at room temperature. The tube was centrifuged at 12,000× g for 10 min and the supernatant was analyzed for the test substance. Sample analysis was performed by 3200 Q TRAP LC-MS/MS system (Applied Biosystems, Concord, ON, Canada) in a negative MRM mode. The analytical methods are described below.
Pharmacokinetic parameters were calculated by noncompartmental analysis of the plasma concentration-time profiles using Kinetica^TM 4.4.1 (Thermo Fisher Scientific, Inc., Woburn, MA, USA). The areas under the plasma concentration–time curves (AUC) were calculated by the linear-trapezoidal method. Total body clearance (CL) was calculated as follows: CL = Dose/AUC0–inf. Terminal elimination half-life (t1/2) was calculated by the following equation: t1/2 = 0.693/λz, where λz is the terminal disposition rate constant. Volume of distribution at steady state (Vss) was calculated as follows: Vss = CL × AUMC0–inf/AUC0–inf, where AUMC0–inf is the area under the first moment of the plasma concentration-time curve extrapolated to infinity. Oral bioavailability (F) was calculated using the following equation:(1) F=(AUCpo/Dosepo)/(AUCiv/Doseiv)×100
Fraction of dose converted to a systemically available metabolite was calculated by the following equation, where D is the dose of the parent, AUC(m) is the area under the curve of metabolite, and CL(m) is the systemic clearance of metabolite:(2) % of dose = AUC(m) ×CL(m)/D×parent mol. wt./metabolite mol. wt. ×100 […]

HCT116 xenograft = HCT116 xenograft model study; format: in vivo; conditions: data not shown
HIF-1α = conditions: cited from earlier work
Stability in mouse serum = format: in vitro ADME
Experimental: All incubations were conducted in triplicate at 37 °C in eight-well tube strips placed in an 8 × 12 rack (VWR, Emeryville, CA, USA) with 50 µL of mouse serum in each tube. LW6 (1 mM) dissolved in acetonitrile was added to a final concentration of […] (1% acetonitrile) to initiate the study. The reaction was terminated at 0, 1, 2, 4, and 6 h by adding 150 µL of ice-cold acetonitrile containing the internal standard. The eight-well cluster tube plate was centrifuged at 910× g for 10 min and the supernatant was analyzed by the LC-ESI/MS/MS method described below for quantitation of LW6 and APA.

in vitro = conditions: human
[3] = Stability in phosphate buffer at physiological pH; format: physicochemical; conditions: data not shown
[4] = mouse, plasma, 5 mg/kg, plasma, analyte = label, after single i.v. dose of LW6 5 mg/kg, male ICR mice, read-out: t1/2 (terminal) (converted)
[5] = mouse, plasma, analyte = label, after single i.v. dose of LW6 5 mg/kg, male ICR mice
[6] = mouse, plasma, analyte = label, after single p.o. dose of LW6 5 mg/kg, male ICR mice
[7] = mouse, plasma, analyte = label, after single p.o. dose of LW6 5 mg/kg, male ICR mice, n = 5
[8] = plasma, analyte = label, after single i.v. dose of LW6 5 mg/kg, male ICR mice
[9] = plasma, analyte = label, after single p.o. dose of LW6 5 mg/kg, male ICR mice
[10] = single i.v. dose of APA 5 mg/kg, male ICR mice, n = 5
[11] = Caco-2, pH 7.4, Typical apparent permeability coefficient (Papp) values

APA depletion in mouse liver microsomes (in words) ([1]; APA 1 µM, 0.5 mg/mL microsomes, presence of NADPH (1 mM)): progressively decreased | half-life [2, 4]: 2.7 ± 0.2 h | Vd ([2]; mouse, plasma, 5 mg/kg, single i.v. dose of APA 5 mg/kg, male ICR mice, n = 5, read-out: Vss): 0.4 ± 0.1 L/kg | Vd ([2]; mouse, plasma, 5 mg/kg, single i.v. dose of APA 5 mg/kg, male ICR mice, n = 5, read-out: Vz): 0.5 ± 0.2 L/kg | half-life ([2]; mouse, plasma, 5 mg/kg, single i.v. dose of APA 5 mg/kg, male ICR mice, n = 5, read-out: t1/2 (converted)): 2.4 ± 0.4 h | MRT [2, 5]: 3.6 ± 0.2 h | clearance ([2]; mouse, plasma, single i.v. dose of APA 5 mg/kg, male ICR mice, n = 5, read-out: CL (converted)): 1.67 mL/min/kg | Cmax [2, 6]: 4240 ± 1260 ng/mL | Tmax [2, 7]: 0.7 ± 0.1 h | AUC0–inf [2, 8]: 17,759.9 ± 3194.1 ng/hr/mL | AUC0–t [2, 8]: 17,731.4 ± 3190.5 ng/hr/mL | AUC0–inf [2, 9]: 14,744.8 ± 5517.4 ng/hr/mL | AUC0–t [2, 9]: 14,615.3 ± 5507.8 ng/hr/mL | AUC0–inf [2, 10]: 39,624.7 ± 9502.30 ng/hr/mL | AUC0–t [2, 10]: 37,703.8 ± 10,162.9 ng/hr/mL | CL [2, 10]: 1.7 ± 0 mL/min/kg
SMILES: O=C(O)COc1ccc(C23CC4CC(CC(C4)C2)C3)cc1 [APA, (4-adamantan-1-yl-phenoxy)acetic acid]
Tumor growth inhibition relative to the control group (HCT116 xenograft): up to 43.3%

LW6 remaining after 60 min microsomal incubation ([1]; 1 µM, 0.5 mg/mL microsomes, absence of NADPH): 63% | LW6 remaining after 60 min microsomal incubation ([1]; 1 µM, 0.5 mg/mL microsomes, presence of NADPH (1 mM)): 65% | t1/2 of conversion to APA in liver microsomes ([1]; 1 µM, 0.5 mg/mL mouse liver microsomes): > 1 h | half-life at 1 µM ([1]; mouse, pooled mouse liver microsomes, pH 7.4, as stated in abstract, read-out: t1/2 of degradation in mouse liver microsomes): > 1 h | half-life at 5 µM (Stability in mouse serum; ICR, mouse serum, 5 µM, up to 6 h, read-out: t1/2 of degradation in serum): > 6 h | Conversion to APA in mouse serum (in words) (Stability in mouse serum; LW6 5 µM): converted slowly to APA | Time beyond which plasma level was below the quantitation limit ([2]; after i.v. LW6 5 mg/kg): 4 h | Time beyond which plasma level was below the quantitation limit ([2]; after p.o. LW6 5 mg/kg): 1 h | half-life [2, 4]: 0.6 ± 0.1 h | Vd ([2]; mouse, plasma, 5 mg/kg, single i.v. dose of LW6 5 mg/kg, male ICR mice, read-out: Vss (volume of distribution at steady state)): 0.5 ± 0.1 L/kg | MRT [2, 5]: 0.3 h | clearance ([2]; mouse, plasma, single i.v. dose of LW6 5 mg/kg, male ICR mice, read-out: CL (systemic clearance) (converted)): 28.3 mL/min/kg | bioavailability ([2]; mouse, plasma, oral, LW6 5 mg/kg p.o. vs 5 mg/kg i.v., calculated using AUC0–t, male ICR mice, read-out: F (oral bioavailability)): 1.7 ± 1.8% | Cmax [2, 6]: 65.5 ± 47.3 ng/mL | Tmax [2, 7]: 0.3 ± 0.1 h | Decrease of plasma exposure of LW6 when administered orally ([2]; oral vs intravenous, 5 mg/kg): about 60 fold | AUC0–inf [2, 8]: 2957.1 ± 215.4 ng/h/mL | AUC0–t [2, 8]: 2949.3 ± 218.4 ng/h/mL | AUC0–t [2, 9]: 49.5 ± 52.5 ng/h/mL | Vz ([2]; single i.v. dose of LW6 5 mg/kg, male ICR mice): 1.6 ± 0.3 Lkg | Permeability across Caco-2 cell monolayers (in words) (Caco-2 cells): moderately permeable | Papp at 120 min, 5 µM (in vitro; Caco-2, pH 7.4, Papp): 2.1 ± 0.4 ×10⁻⁶ cm/s | Stability in phosphate buffer [3]: stable
SMILES: COC(=O)c1ccc(O)c(NC(=O)COc2ccc(C34CC5CC(CC(C5)C3)C4)cc2)c1 [LW6]
Accumulation of HIF-1α (HIF-1α): inhibited | HIF-1α protein expression (HIF-1α; without affecting HIF-1β expression, via regulation of VHL): decreased

Papp at 120 min, 5 µM (in vitro; Caco-2, pH 7.4, Papp): 35.3 ± 0.6 ×10⁻⁶ cm/s | Papp at 120 min, 5 µM (in vitro; [11]): > 25 ×10⁻⁶ cm/s
SMILES: COCCc1ccc(OCC(O)CNC(C)C)cc1 (stereo not shown) [Metoprolol, metoprolol]

Papp at 120 min, 5 µM (in vitro; Caco-2, pH 7.4, Papp): 0.8 ×10⁻⁶ cm/s | Papp at 120 min, 5 µM (in vitro; [11]): < 2 ×10⁻⁶ cm/s
SMILES: CNC(=C[N+](=O)[O-])NCCSCc1ccc(CN(C)C)o1 [Ranitidine, ranitidine]

Reference: publication PMC8070284, “Pharmacokinetic Characterization of LW6, a Novel Hypoxia-Inducible Factor-1α (HIF-1α) Inhibitor in Mice” (Molecules, 2021)
